Tested on: HCV genotype-1a variant with glutamine 30 changed to glutamate in the NS5A protein
Type: cell-based
Conditions: test compound titrated with BMS-790052 fixed at 200 nM; genotype 1a Q30E replicon
How it was run: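 Synergy was assessed by combining several fixed amounts of an NS5A-targeting compound with a titration of the second compound of interest.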

Structure (SMILES)	Fold-Synergistic 1a (Q30E) [fold]
CC(C)[C@H](NC(=O)c1cc(C(C)(C)C)nn1C)c1ncc(-c2ccc(-c3ccc(-c4cnc([C@@H](NC(=O)c5cc(C(C)(C)C)nn5C)C(C)C)[nH]4)cc3)cc2)[nH]1 [Compound S-101]	>100
CC1(C(O)C(C)(C)C(=O)N[C@H](c2nc(-c3ccc(-c4ccc(-c5c[nH]c([C@@H](NC(=O)C(C)(C)C(O)C6(C)CC6)C(C)(C)C)n5)cc4)cc3)c[nH]2)C(C)(C)C)CC1 (single isomer, unassigned) [Compound N-151A]	>100
O=C(c1cccc2ccccc12)N1CCC[C@H]1c1ncc(-c2ccc(-c3ccc(-c4cnc([C@@H]5CCCN5C(=O)c5cccc6ccccc56)[nH]4)cc3)cc2)[nH]1 [Compound S-119]	>10
CC1(C(=O)N[C@H](c2nc(-c3ccc(-c4ccc(-c5c[nH]c([C@@H](NC(=O)C6(C)CCCCC6O)C(C)(C)C)n5)cc4)cc3)c[nH]2)C(C)(C)C)CCCCC1O (single isomer, unassigned) [Compound Y-93]	>100
CC(C)(C(=O)N[C@H](c1nc(-c2ccc(-c3ccc(-c4c[nH]c([C@@H](NC(=O)C(C)(C)C(O)c5ccccc5F)C(C)(C)C)n4)cc3)cc2)c[nH]1)C(C)(C)C)C(O)c1ccccc1F (single isomer, unassigned) [Compound N-124C]	>100
CC(C)(C)[C@H](NC(=O)C1(CO)CCCO1)c1nc(-c2ccc(-c3ccc(-c4c[nH]c([C@@H](NC(=O)C5(CO)CCCO5)C(C)(C)C)n4)cc3)cc2)c[nH]1 (single isomer, unassigned) [Compound Y-110]	>100
CC(C)[C@H](NC(=O)C1CCC(F)(F)CC1)c1ncc(-c2ccc(-c3ccc(-c4cnc([C@@H](NC(=O)C(C)(C)C)C(C)C)[nH]4)cc3)cc2)[nH]1 [Compound Y-52]	>100
CC(C)(NC(=O)CC(F)(F)F)C(=O)N[C@H](c1nc(-c2ccc(-c3ccc(-c4c[nH]c([C@@H](NC(=O)C(C)(C)NC(=O)CC(F)(F)F)C(C)(C)C)n4)cc3)cc2)c[nH]1)C(C)(C)C [Compound L-144]	>100
CC(C)(C)[C@H](NC(=O)Cc1ccc(F)cc1)c1nc(-c2ccc(-c3ccc(-c4c[nH]c([C@@H](NC(=O)Cc5ccc(F)cc5)C(C)(C)C)n4)cc3)cc2)c[nH]1 [Compound N-49]	>100
O=C(c1nccc2c(Cl)cccc12)N1CCC[C@H]1c1ncc(-c2ccc(-c3ccc(-c4cnc([C@@H]5CCCN5C(=O)c5nccc6c(Cl)cccc56)[nH]4)cc3)cc2)[nH]1 [Compound S-206]	>100
CC(C)(NC(=O)OC1CCCCC1)C(=O)N[C@H](c1nc(-c2ccc(-c3ccc(-c4c[nH]c([C@@H](NC(=O)C(C)(C)NC(=O)OC5CCCCC5)C(C)(C)C)n4)cc3)cc2)c[nH]1)C(C)(C)C [Compound Q-6]	>100
CC1(C(=O)N[C@H](c2nc(-c3ccc(-c4ccc(-c5c[nH]c([C@@H](NC(=O)C6(C)CC(F)(F)CN6)C(C)(C)C)n5)cc4)cc3)c[nH]2)C(C)(C)C)CC(F)(F)CN1 (mixture of isomers) [Compound W-80]	>100
CC(C)[C@H](NC(=O)C(C)(C)F)c1ncc(-c2ccc(-c3ccc(-c4cnc([C@@H](NC(=O)C(C)(C)F)C(C)C)[nH]4)cc3)cc2)[nH]1 [Compound P-99]	>100
CC1(C)CCN(C(=O)C(=O)N2C(C)(C)CCCC2(C)C)C1c1nc(-c2ccc(-c3ccc(-c4c[nH]c(C5N(C(=O)C(=O)N6C(C)(C)CCCC6(C)C)CCC5(C)C)n4)cc3)cc2)c[nH]1.O=C(O)C(F)(F)F.O=C(O)C(F)(F)F (centres unmarked) [Compound W-246]	>100
CC(C)[C@H](NC(=O)[C@@H]1CCCO1)c1ncc(-c2ccc(-c3ccc(-c4cnc([C@@H](NC(=O)[C@@H]5CCCO5)C(C)C)[nH]4)cc3)cc2)[nH]1 [Compound P-66]	>100
COC(=O)N[C@@H](C(=O)N[C@H](c1ncc(-c2ccc(-c3ccc(-c4cnc([C@@H](NC(=O)[C@H](NC(=O)OC)c5ccccc5)C(C)C)[nH]4)cc3)cc2)[nH]1)C(C)C)c1ccccc1 [Compound P-103]	>100
CC(C)[C@H](NC(=O)c1cc2ccccc2s1)c1ncc(-c2ccc(-c3ccc(-c4cnc([C@@H](NC(=O)c5cc6ccccc6s5)C(C)C)[nH]4)cc3)cc2)[nH]1 [Compound P-98]	>100
CO[C@@H](C(=O)N[C@H](c1nc(-c2ccc(-c3ccc(-c4c[nH]c([C@@H](NC(=O)[C@H](OC)c5ccccc5)C(C)(C)C)n4)cc3)cc2)c[nH]1)C(C)(C)C)c1ccccc1 [Compound P-15]	>100
CC1([C@H](NC(=O)N2CCC(F)(F)CC2)c2nc(-c3ccc(-c4ccc(-c5c[nH]c([C@@H](NC(=O)N6CCC(F)(F)CC6)C6(C)CC6)n5)cc4)cc3)c[nH]2)CC1 [Compound P-135]	>100

Structure (SMILES)	Fold-Synergistic 1a (Q30E) [fold]
CC(C)[C@H](NC(=O)C(C)(C)OCC(F)F)c1nc(-c2ccc(-c3ccc(-c4c[nH]c([C@@H](NC(=O)C(C)(C)OCC(F)F)C(C)C)n4)cc3F)cc2)c[nH]1.O=C(O)C(F)(F)F [Compound N-98]	>100
CC(C)(C)[C@H](NC(=O)C1(NC(=O)C(F)(F)F)CCCCC1)c1nc(-c2ccc(-c3ccc(-c4c[nH]c([C@@H](NC(=O)C5(NC(=O)C(F)(F)F)CCCCC5)C(C)(C)C)n4)cc3)cc2)c[nH]1.O=C(O)C(F)(F)F.O=C(O)C(F)(F)F [Compound W-269]	>100
C=C1CCC(C(=O)N[C@H](c2nc(-c3ccc(-c4ccc(-c5c[nH]c([C@@H](NC(=O)C6CCC(=C)CC6)C(C)(C)C)n5)cc4)cc3)c[nH]2)C(C)(C)C)CC1 [Compound N-118]	>100
CN1CCC(C(=O)N[C@H](c2nc(-c3ccc(-c4ccc(-c5c[nH]c([C@@H](NC(=O)C6CCN(C)CC6)C(C)(C)C)n5)cc4)cc3)c[nH]2)C(C)(C)C)CC1 [Compound S-268]	>10
CC(C)(C)OC(=O)N1CC2(CC(C(=O)NC(c3nc(-c4ccc(-c5ccc(-c6c[nH]c(C(NC(=O)C7CC8(C7)CN(C(=O)OC(C)(C)C)C8)C(C)(C)C)n6)cc5)cc4)c[nH]3)C(C)(C)C)C2)C1 [Compound L-57]	>100
CC1(C(=O)NC(c2nc(-c3ccc(-c4ccc(-c5c[nH]c(C(NC(=O)C6(C)CCC(F)(F)CO6)C(C)(C)C)n5)cc4)cc3)c[nH]2)C(C)(C)C)CCC(F)(F)CO1 (single isomer, unassigned) [Compound Y-67B]	>100
CC(C)(C)[C@H](NC(=O)CC1CCCCC1)c1nc(-c2ccc(-c3ccc(-c4c[nH]c([C@@H](NC(=O)CC5CCCCC5)C(C)(C)C)n4)cc3)cc2)c[nH]1 [Compound N-50]	>100
COCC1(C(=O)N[C@H](c2ncc(-c3ccc(-c4ccc(-c5cnc([C@@H](NC(=O)C6(COC)CCC6)C(C)C)[nH]5)cc4)cc3)[nH]2)C(C)C)CCC1 [Compound P-74]	>100
CC(=O)N1C[C@H](F)C[C@H]1C(=O)N[C@H](c1nc(-c2ccc(-c3ccc(-c4c[nH]c([C@@H](NC(=O)[C@@H]5C[C@@H](F)CN5C(C)=O)C(C)(C)C)n4)cc3)cc2)c[nH]1)C(C)(C)C [Compound W-102]	>10
COCC1(C(=O)N[C@H](c2nc(-c3ccc(-c4ccc(-c5c[nH]c([C@@H](NC(=O)C6(COC)CCC(F)(F)CC6)C(C)(C)C)n5)cc4)cc3)c[nH]2)C(C)(C)C)CCC(F)(F)CC1 [Compound P-41]	>100
CC(C)COC(=O)N1CCC[C@H]1c1ncc(-c2ccc(-c3ccc(-c4cnc([C@@H]5CCCN5C(=O)OCC(C)C)[nH]4)cc3)cc2)[nH]1 [Compound S-222]	>10
CC(C)(F)C(=O)N[C@H](c1nc(-c2ccc(-c3ccc(-c4c[nH]c([C@@H](NC(=O)C(C)(C)F)C(C)(C)C)n4)cc3)cc2)c[nH]1)C(C)(C)C [Compound N-115]	>100
CC(C)[C@H](NC(=O)OC1CCCC1)c1ncc(-c2ccc(-c3ccc(-c4cnc([C@@H](NC(=O)OC5CCCC5)C(C)C)[nH]4)cc3)cc2)[nH]1 [Compound S-213]	>100
CC(C)(C)C(=O)N[C@H](c1ncc(-c2ccc(-c3ccc(-c4cnc([C@@H](NC(=O)C(C)(C)C)C5(C)CC5)[nH]4)cc3)cc2)[nH]1)C1(C)CC1 [Compound Y-35]	>100
CCOC(=O)C1(C(=O)N[C@H](c2nc(-c3ccc(-c4ccc(-c5c[nH]c([C@@H](NC(=O)C6(C(=O)OCC)CCCCC6)C(C)(C)C)n5)cc4)cc3)c[nH]2)C(C)(C)C)CCCCC1 [Compound N-146]	>100
CC(C)(C)C(=O)N[C@H](c1nc(-c2ccc(-c3ccc(-c4c[nH]c([C@@H](NC(=O)C(C)(C)C)C(C)(C)C)n4)c(F)c3)cc2)c[nH]1)C(C)(C)C.O=C(O)C(F)(F)F [Compound N-93]	>100
CC(C)CC(=O)N[C@H](c1nc(-c2ccc(-c3ccc(-c4nc([C@@H](NC(=O)CC(C)C)C(C)C)[nH]c4Cl)cc3)cc2)c(Cl)[nH]1)C(C)C [Compound P-48]	>100
CC(C)(C)C(NC(=O)CC1CCCO1)c1nc(-c2ccc(-c3ccc(-c4c[nH]c(C(NC(=O)CC5CCCO5)C(C)(C)C)n4)cc3)cc2)c[nH]1.O=C(O)C(F)(F)F.O=C(O)C(F)(F)F (mixture of isomers) [Compound L-70]	>100
CC(C)(C)[C@H](NC(=O)C1CCC(F)(F)CC1)c1ncc(-c2cc3cc4oc(-c5cnc([C@@H](NC(=O)C6CCC(F)(F)CC6)C(C)(C)C)[nH]5)cc4cc3o2)[nH]1 [Compound B59]	>100

From patent US20160158200A1, “Combinations of Hepatitis C Virus Inhibitors” (priority 2013, published 2016)
